This note sets out measurements from PubChem BioAssay AID1996.

≈ marks a conversion by molar mass, not a printed value.

For the data set the following is noted: buffer; pH 7.4; 200.0 µM.
The term kinetic solubility denotes solubility judged after dilution from a stock solution rather than from solid. With `CCCCN1C(=O)C(=O)N(CC(=O)c2ccc[nH]2)C1=O`, the kinetic solubility is above 41.6 µg/mL. The molecule `COc1ccc(-c2noc(CN(C)C(=O)c3ccoc3C)n2)cc1` showed a solubility (kinetic) of 40.6 µg/mL (≈ 124 µM).

For the molecule `CC(C)[N+](C)(C)CC#CC(O)(c1ccccc1)c1ccccc1.[Br-]`, the kinetic solubility came out at 51 µg/mL. The same measure for `O=C(Nc1cc(C(F)(F)F)ccc1-n1cncn1)C1CC1`: above 44.4 µg/mL; for `Cc1ccc(C)c(S(=O)(=O)N(C)Cc2cccs2)c1`: 9.9 µg/mL (≈ 33.5 µM). `O=C(NCC(=O)N1CCCCCCC1)c1ccccc1Cl` had a kinetic solubility above 46.3 µg/mL. In turn, `Cc1ccc(C(=O)NC(C)C2CC3CCC2C3)cc1` (configuration not stated) had a kinetic solubility below 0.6 µg/mL. Regarding `Cc1ccccc1OCC(=O)N1CCCCCCC1`, the solubility (kinetic) is above 39.2 µg/mL. `Cc1ccc(C(=O)NC(C)c2ccc3c(c2)OCO3)s1` (configuration not stated) yielded a kinetic solubility above 43.4 µg/mL. In turn, `Cc1ccc(S(=O)(=O)N2CCN3CCCC3C2)cc1` (configuration not stated) displayed a solubility (kinetic) above 42.1 µg/mL.

`OCCNC(=S)Nc1cccc(Cl)c1Cl` registered a solubility (kinetic) above 39.8 µg/mL.

As to `COC(=O)c1c(S(=O)(=O)N2CCOCC2)c(C)n(C)c1C`, the solubility (kinetic) is above 47.5 µg/mL. The molecule `O=C(COC(=O)c1cc(Br)ccc1Cl)NC1CCCC1` had a kinetic solubility of 5.6 µg/mL (≈ 15.5 µM). As for `Oc1ccccc1Oc1ncc(Br)c(Cl)n1`, the solubility (kinetic) is above 45.2 µg/mL.

`Nc1ccc(-c2nc3ncccc3o2)cc1` displayed a solubility (kinetic) above 31.7 µg/mL. The same measure for `Cn1cccc1C(=O)N1CCc2ccccc2C1`: above 36 µg/mL.

In the case of `O=C(OCC(=O)N1CCCC1=O)c1ccc(O)cc1O`, the solubility (kinetic) was above 41.9 µg/mL. For `CC(C)(C)CC(=O)N1CCN(Cc2ccc3c(c2)OCO3)CC1`, the kinetic solubility was above 47.8 µg/mL. Take `COc1cc(C)c(Cl)cc1S(=O)(=O)NCc1ccccn1`: the solubility (kinetic) worked out at 34.5 µg/mL (≈ 106 µM). `O=C(Nc1ccc(Cl)c(S(=O)(=O)N2CCOCC2)c1)c1ccc2c(c1)OCO2` returned a solubility (kinetic) of 2.6 µg/mL (≈ 6.12 µM). For the molecule `CC(C)NC(=O)c1ccc(N(Cc2ccccc2)S(C)(=O)=O)cc1`, the kinetic solubility was determined as 11.1 µg/mL (≈ 32 µM). Compared with the last molecule, the solubility kinetic is about 4.3-fold higher.

In turn, `Cc1cccc(C(=O)OCC(=O)N2CCN(C(=O)c3ccco3)CC2)c1O` gave a solubility (kinetic) of 38.8 µg/mL (≈ 104 µM). Take `CCC(=O)N(CCC(c1ccco1)C(C)C)Cc1ccccc1` (configuration not stated): the solubility (kinetic) was found to be 23.7 µg/mL (≈ 75.6 µM). `Cc1cnc(NC(=O)c2ccc(OCC3CCCO3)cc2)s1` (configuration not stated) displayed a solubility (kinetic) of 7.8 µg/mL (≈ 24.5 µM). The molecule `CC1CC(C)CN(C(=O)COC(=O)c2ccc(Cl)nc2)C1` (configuration not stated) displayed a kinetic solubility above 46.6 µg/mL.

For `CC1NC(C)(C)Cc2c1ccc1ccccc21.Cl` (configuration not stated), the kinetic solubility was found to be 37.6 µg/mL. `COc1ccc(N2CCN(C(=O)NC(=O)c3ccc(Cl)cc3)CC2)cc1` displayed a kinetic solubility of 3.1 µg/mL (≈ 8.29 µM). Against the preceding molecule, the solubility kinetic is about 12-fold lower. `O=S(=O)(c1ccccc1)c1nc(NC2CC2)sc1Cl` came in with a solubility (kinetic) of 42.8 µg/mL (≈ 136 µM).

As to `CC1CCN(C(=O)Cn2cc([N+](=O)[O-])ccc2=O)c2ccccc2S1` (configuration not stated), the solubility (kinetic) was above 53.9 µg/mL. Take `Cc1c(Cl)cnc(NC(=O)COC(=O)C2CCCC2)c1Cl`: the kinetic solubility was above 49.7 µg/mL.

With `CC1CC(=O)Nc2ccccc2N1S(=O)(=O)c1cccs1` (configuration not stated), the kinetic solubility came out at 17 µg/mL (≈ 52.7 µM). With `CN1CCN(C(=O)CCC(=O)O)CC1`, the solubility (kinetic) was 26.5 µg/mL (≈ 132 µM). As for `CC(O)CNCCNCc1cccs1.Cl` (configuration not stated), the kinetic solubility is above 43.1 µg/mL.

In the case of `S=C(NCc1ccco1)N1CCC(c2nc3ccccc3o2)CC1`, the solubility (kinetic) came out at 11.3 µg/mL (≈ 33.1 µM).

`O=C(Cn1c(=O)[nH]c2ccccc2c1=O)Nc1cccnc1` came in with a solubility (kinetic) above 44.4 µg/mL.

For the molecule `Cc1cc2c(cc1C)CN(c1ccccc1)C2`, the solubility (kinetic) was found to be 7.1 µg/mL (≈ 31.8 µM). Molecule `CC(C)NC(=O)/C(C#N)=C\c1ccc(N(C)C)o1` had a solubility (kinetic) above 37.1 µg/mL.

In turn, `Cl.O=C(Nc1cccc(F)c1)[C@@H]1CCCN1` had a solubility (kinetic) above 36.7 µg/mL. `O=C(Nc1nc(-c2ccc(Br)cc2)cs1)c1cccnc1` returned a kinetic solubility below 0.3 µg/mL. The same measure for `COc1ccccc1NC(=O)c1ccc(COc2ccccc2OC)cc1`: 3.1 µg/mL (≈ 8.53 µM). `Nc1nc(NCCOCCO)nc(N2CCCCCC2)c1[N+](=O)[O-]`: the solubility (kinetic) came out at 47.4 µg/mL (≈ 139 µM). The same measure for `Cn1c(SCc2c(F)cccc2Cl)nc2c(c1=O)SCC2`: 6.1 µg/mL (≈ 17.8 µM). As to `CCCCNC(=O)NS(=O)(=O)c1ccc(C)cc1`, the solubility (kinetic) was above 40.6 µg/mL. The molecule `Cc1ccc(Nc2ccc(C(=O)O)cc2[N+](=O)[O-])cc1` registered a kinetic solubility above 40.8 µg/mL. As to `Cc1ccc(Nc2nnc(C)c3ccccc23)c(C)c1`, the kinetic solubility was above 39.5 µg/mL.

`COc1ccc(/C=N/OCC(=O)NCC(C)C)c(OC)c1` displayed a kinetic solubility above 44.2 µg/mL. The same measure for `COc1ccc(NC(=O)CN(C)C(=O)C2(c3ccccc3)CCCC2)cc1`: above 55 µg/mL; for `Cc1ccc(NC(=S)NC2CCSc3ccccc32)cc1C` (configuration not stated): below 0.4 µg/mL. `COc1ccccc1C1CC(=O)Nc2cc(C)c(C)cc21` (configuration not stated) yielded a solubility (kinetic) below 0.6 µg/mL.

`COc1cccc(C(=O)Nc2c(F)cccc2F)c1`: the kinetic solubility is above 39.5 µg/mL.

Regarding `CN(C)CCNS(=O)(=O)c1ccc2c3c(cccc13)C(=O)N2`, the solubility (kinetic) is above 47.9 µg/mL. The molecule `CC(=O)Nc1ccc(S(=O)(=O)NCCC(=O)NC(C)c2cccs2)cc1` (configuration not stated) gave a kinetic solubility above 59.3 µg/mL.
